Reference: patent US9102591B2, “Benzamides” (H. Lundbeck A/S, priority 2012, dated 2015)

Biological target: P2X7 receptor (Homo sapiens (Human), UniProt Q99572)
Assay: P2X7 FLIPR assay (BzATP-stimulated calcium fluorescence, antagonist IC50)
Assay type: cell-based
Outline: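 Cells expressing P2X7 receptor (human, rat or mouse), plated 24 hours earlier in low-serum medium, loaded with Fluo-4 NW dye (30 min 37° C, 30 min room temperature).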

Sequence of P2X7 receptor (Q99572 whole entry): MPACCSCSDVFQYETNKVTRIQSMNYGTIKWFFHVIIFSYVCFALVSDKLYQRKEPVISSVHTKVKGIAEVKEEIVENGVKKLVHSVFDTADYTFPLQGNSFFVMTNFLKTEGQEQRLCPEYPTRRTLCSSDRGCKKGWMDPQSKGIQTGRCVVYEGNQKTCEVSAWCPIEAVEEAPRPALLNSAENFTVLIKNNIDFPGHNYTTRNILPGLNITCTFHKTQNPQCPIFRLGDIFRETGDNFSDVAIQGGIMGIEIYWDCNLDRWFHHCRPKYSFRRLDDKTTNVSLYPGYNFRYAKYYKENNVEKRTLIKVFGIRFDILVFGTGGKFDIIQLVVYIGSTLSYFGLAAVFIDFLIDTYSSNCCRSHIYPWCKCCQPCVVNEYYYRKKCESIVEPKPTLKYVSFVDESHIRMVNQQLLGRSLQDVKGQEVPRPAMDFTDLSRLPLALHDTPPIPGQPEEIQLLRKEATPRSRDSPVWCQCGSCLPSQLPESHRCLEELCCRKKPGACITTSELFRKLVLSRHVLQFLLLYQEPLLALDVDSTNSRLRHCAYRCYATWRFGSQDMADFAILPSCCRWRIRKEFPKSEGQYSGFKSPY

Row | IC50 [µM] | SMILES
1 | 0.0062 | Cc1ncc(C(CNC(=O)c2cccc(Cl)c2Cl)C2CCC(F)(F)CC2)cn1 (stereo not drawn) [2,3-dichloro-N-[2-(4,4-difluorocyclohexyl)-2-(2-methylpyrimidin-5-yl)ethyl]benzamide]
2 | 0.0062 | O=C(NCC(c1ccncc1)c1cnc(C(F)(F)F)nc1)c1cccc(Cl)c1Cl (stereo not drawn) [2,3-dichloro-N-[2-(4-pyridyl)-2-[2-(trifluoromethyl)pyrimidin-5-yl]ethyl]benzamide]
3 | 0.2 | O=C(NCC(c1ccncc1)c1ccc(C(F)(F)F)nc1)c1cccc(Cl)c1Cl (stereo not drawn) [2,3-dichloro-N-[2-(4-pyridyl)-2-[6-(trifluoromethyl)-3-pyridyl]ethyl]benzamide]
4 | 0.00076 | O=C(NCC(CC1(C(F)F)CC1)c1ccc(C2CC2)nc1)c1cccc(Cl)c1Cl (stereo not drawn) [2,3-dichloro-N-[2-(6-cyclopropyl-3-pyridyl)-3-[1-(difluoromethyl)cyclopropyl]propyl]benzamide]
5 | 0.015 | O=C(NCC(CC1(C(F)(F)F)CC1)c1ccc(C2CC2)nc1)c1cccc(Cl)c1Cl (stereo not drawn) [2,3-dichloro-N-[2-(6-cyclopropyl-3-pyridyl)-3-[1-(trifluoromethyl)cyclopropyl]propyl]benzamide]
6 | 0.0093 | O=C(NCC(CC1(F)CC1)c1cnc(C(F)(F)F)nc1)c1cccc(Cl)c1Cl (stereo not drawn) [2,3-dichloro-N-[3-(1-fluorocyclopropyl)-2-[2-(trifluoromethyl)pyrimidin-5-yl]propyl]benzamide]
7 | 0.0037 | O=C(NCC(CC1(F)CC1)c1ccc(C(F)(F)F)nc1)c1cccc(Cl)c1Cl (stereo not drawn) [2,3-dichloro-N-[3-(1-fluorocyclopropyl)-2-[6-(trifluoromethyl)-3-pyridyl]propyl]benzamide]
8 | 0.0016 | O=C(NCC(CC1(C(F)F)CC1)c1ccc(C(F)(F)F)nc1)c1cccc(Cl)c1Cl (stereo not drawn) [2,3-dichloro-N-[3-[1-(difluoromethyl)cyclopropyl]-2-[6-(trifluoromethyl)-3-pyridyl]propyl]benzamide]
9 | 0.019 | O=C(NCC(CC1(C(F)(F)F)CC1)c1ccc(C(F)(F)F)nc1)c1cccc(Cl)c1Cl (stereo not drawn) [2,3-dichloro-N-[3-[1-(trifluoromethyl)cyclopropyl]-2-[6-(tri] [2,3-dichloro-N-[3-[1-(trifluoromethyl)cyclopropyl]-2-[6-(trifluoromethyl)-3-pyridyl]propyl]benzamide]
10 | 0.00088 | O=C(NCC(CC1CC1)c1cnc(C(F)(F)F)nc1)c1cccc(Cl)c1Cl (stereo not drawn) [2,3-dichloro-N-[3-cyclopropyl-2-[2-(trifluoromethyl)pyrimidi] [2,3-dichloro-N-[3-cyclopropyl-2-[2-(trifluoromethyl)pyrimidin-5-yl]propyl]benzamide]
11 | 0.00055 | O=C(NCC(CC1CC1)c1ccc(C(F)(F)F)nc1)c1cccc(Cl)c1Cl (stereo not drawn) [2,3-dichloro-N-[3-cyclopropyl-2-[6-(trifluoromethyl)-3-pyrid] [2,3-dichloro-N-[3-cyclopropyl-2-[6-(trifluoromethyl)-3-pyridyl]propyl]benzamide]
12 | 2.2 | COCCC(CNC(=O)c1cccc(Cl)c1Cl)c1cnc(C(F)(F)F)nc1 (stereo not drawn) [2,3-dichloro-N-[4-methoxy-2-[2-(trifluoromethyl)pyrimidin-5-yl]butyl]benzamide]
13 | 0.00028 | O=C(NCC1(c2ccc(F)nc2)CCC(F)(F)CC1)c1cccc(Cl)c1Cl [2,3-dichloro-N-[[4,4-difluoro-1-(6-fluoro-3-pyridyl)cyclohexyl]methyl]benzamide]
14 | 0.00095 | O=C(NCC1(c2cnc(C(F)(F)F)nc2)CCC(F)(F)CC1)c1cccc(Cl)c1Cl [2,3-dichloro-N-[[4,4-difluoro-1-[2-(trifluoromethyl)pyrimidin-5-yl]cyclohexyl]methyl]benzamide]
15 | 0.023 | CC(C)(O)c1ccc(C2(CNC(=O)c3cccc(Cl)c3Cl)CCC(F)(F)CC2)cn1 [2,3-dichloro-N-[[4,4-difluoro-1-[6-(1-hydroxy-1-methyl-ethyl)-3-pyridyl]cyclohexyl]methyl]benzamide]
16 | 0.25 | O=C(NCC1(c2cnc(C(F)(F)F)nc2)CCOCC1)c1cccc(Cl)c1Cl [2,3-dichloro-N-[[4-[2-(trifluoromethyl)pyrimidin-5-yl]tetrahydropyran-4-yl]methyl]benzamide]
17 | 0.025 | O=C(NCC(c1ccccc1)c1ccc(C(F)(F)F)nc1)c1ccc(Cl)cc1Cl (stereo not drawn) [2,4-dichloro-N-(2-phenyl-2-(6-(trifluoromethyl)pyridin-3-yl)ethyl)benzamide]
18 | 0.0051 | O=C(NCC(CC1CC1)c1cnc(C(F)(F)F)nc1)c1c(Cl)cccc1Cl (stereo not drawn) [2,6-dichloro-N-(3-cyclopropyl-2-(2-(trifluoromethyl)pyrimidi] [2,6-dichloro-N-(3-cyclopropyl-2-(2-(trifluoromethyl)pyrimidin-5-yl)propyl)benzamide]
19 | 0.00071 | O=C(NCC(CC1CC1)c1ccc(C(F)(F)F)nc1)c1c(Cl)cccc1Cl (stereo not drawn) [2,6-dichloro-N-(3-cyclopropyl-2-(6-(trifluoromethyl)pyridin-] [2,6-dichloro-N-(3-cyclopropyl-2-(6-(trifluoromethyl)pyridin-3-yl)propyl)benzamide]
20 | 0.014 | O=C(NCC(CC1CC1)c1cnc(C(F)(F)F)nc1)c1cccc(F)c1Cl (stereo not drawn) [2-chloro-N-(3-cyclopropyl-2-(2-(trifluoromethyl)pyrimidin-5-] [2-chloro-N-(3-cyclopropyl-2-(2-(trifluoromethyl)pyrimidin-5-yl)propyl)-3-fluorobenzamide]
21 | 0.022 | O=C(NCC(CC1CC1)c1cnc(C(F)(F)F)nc1)c1c(F)cccc1Cl (stereo not drawn) [2-chloro-N-(3-cyclopropyl-2-(2-(trifluoromethyl)pyrimidin-5-] [2-chloro-N-(3-cyclopropyl-2-(2-(trifluoromethyl)pyrimidin-5-yl)propyl)-6-fluorobenzamide]
22 | 0.013 | O=C(NCC(CC1CC1)c1cnc(C(F)(F)F)nc1)c1ccccc1Cl (stereo not drawn) [2-chloro-N-(3-cyclopropyl-2-(2-(trifluoromethyl)pyrimidin-5-] [2-chloro-N-(3-cyclopropyl-2-(2-(trifluoromethyl)pyrimidin-5-yl)propyl)benzamide]
23 | 0.31 | O=C(NCC(CC1CC1)c1ccc(C(F)(F)F)nc1)c1ccc(F)cc1Cl (stereo not drawn) [2-chloro-N-(3-cyclopropyl-2-(6-(trifluoromethyl)pyridin-3-yl)propyl)-4-fluorobenzamide]

More lines, now with the values behind:

Row | SMILES | IC50 [µM]
24 | O=C(NCC(c1ccc(Cl)cc1)C1CCOCC1)c1cccc(Cl)c1Cl (stereo not drawn) [2,3-dichloro-N-[2-(4-chlorophenyl)-2-tetrahydropyran-4-yl-ethyl]benzamide] | 0.0016
25 | Cc1ccc(C(CNC(=O)c2cccc(Cl)c2Cl)CC2CC2)c(C)n1 (stereo not drawn) [2,3-dichloro-N-[3-cyclopropyl-2-(2,6-dimethyl-3-pyridyl)propyl]benzamide] | 1.3
26 | Cc1ncc(C2(CNC(=O)c3cccc(Cl)c3Cl)CCC(F)(F)CC2)cn1 [2,3-dichloro-N-[[4,4-difluoro-1-(2-methylpyrimidin-5-yl)cyclohexyl]methyl]benzamide] | 0.0086
27 | O=C(NCC(c1ccccc1)c1ccnnc1)c1ccc(Cl)cc1Cl (stereo not drawn) [2,4-dichloro-N-(2-phenyl-2-pyridazin-4-yl-ethyl)benzamide] | 0.72
28 | O=C(NCC1(c2ccc(F)nc2)CCC(F)(F)CC1)c1cc(Cl)ccc1Cl [2,5-dichloro-N-((4,4-difluoro-1-(6-fluoropyridin-3-yl)cyclohexyl)methyl)benzamide] | 0.0023
29 | O=C(NCC1(c2ccc(Cl)cc2)CCOCC1)c1c(Cl)cccc1Cl [2,6-Dichloro-N-[4-(4-chloro-phenyl)-tetrahydro-pyran-4-ylmethyl]-benzamide] | 0.36
30 | Cc1ccc(Cl)c(C(=O)NCC2(c3cccnc3)CCCC2)c1 [2-Chloro-5-methyl-N-(1-pyridin-3-yl-cyclopentylmethyl)-benzamide] | 2.9
31 | Cc1ccc(Cl)c(C(=O)NCC2(c3ccc(C)nc3)CCOCC2)c1 [2-Chloro-5-methyl-N-[4-(6-methyl-pyridin-3-yl)-tetrahydro-pyran-4-ylmethyl]-benzamide] | 3.4
32 | COc1ccc(C2(CNC(=O)c3cc(C)ccc3Cl)CCCC2)cc1 [2-Chloro-N-[1-(4-methoxy-phenyl)-cyclopentylmethyl]-5-methyl-benzamide] | 0.19
33 | Cc1ccc(Cl)c(C(=O)NCC2(c3ccc(Cl)cc3)CCOCC2)c1 [2-Chloro-N-[4-(4-chloro-phenyl)-tetrahydro-pyran-4-ylmethyl]-5-methyl-benzamide] | 0.062
34 | O=C(NCC1(c2ccc(Cl)cc2)CCOCC1)c1ccccc1Cl [2-Chloro-N-[4-(4-chloro-phenyl)-tetrahydro-pyran-4-ylmethyl]-benzamide] | 0.8
35 | Cc1ccccc1C(=O)NCC1(c2ccccc2)CCN(C)CC1 [2-Methyl-N-(1-methyl-4-phenyl-piperidin-4-ylmethyl)-benzamide] | 0.064
36 | Cc1ccccc1C(=O)NCC1(c2cccnc2)CCCC1 [2-Methyl-N-(1-pyridin-3-yl-cyclopentylmethyl)-benzamide] | 3.6
37 | Cc1ccc(C(CNC(=O)c2ccccc2C)CC(C)C)cn1 (stereo not drawn) [2-Methyl-N-[4-methyl-2-(6-methyl-pyridin-3-yl)-pentyl]-benzamide] | 0.029
38 | Cc1ncc(C2(C(C)NC(=O)c3cccc(F)c3Cl)CCOCC2)cn1 (stereo not drawn) [2-chloro-3-fluoro-N-[1-[4-(2-methylpyrimidin-5-yl)tetrahydropyran-4-yl]ethyl]benzamide] | 0.015
39 | Cc1ncc(C(CNC(=O)c2cccc(F)c2Cl)c2ccncc2)cn1 (stereo not drawn) [2-chloro-3-fluoro-N-[2-(2-methylpyrimidin-5-yl)-2-(4-pyridyl)ethyl]benzamide] | 0.86
40 | Cc1ncc(C(CNC(=O)c2cccc(F)c2Cl)C2CCOCC2)cn1 (stereo not drawn) [2-chloro-3-fluoro-N-[2-(2-methylpyrimidin-5-yl)-2-tetrahydropyran-4-yl-ethyl]benzamide] | 0.21
41 | Cc1ncc(C(CNC(=O)c2c(F)cccc2Cl)C2CCOCC2)cn1 (stereo not drawn) [2-chloro-6-fluoro-N-[2-(2-methylpyrimidin-5-yl)-2-tetrahydropyran-4-yl-ethyl]benzamide] | 1.9
42 | O=C(NCC1(c2cnc(C(F)(F)F)nc2)CCOCC1)c1c(F)cccc1Cl [2-chloro-6-fluoro-N-[[4-[2-(trifluoromethyl)pyrimidin-5-yl]tetrahydropyran-4-yl]methyl]benzamide] | 1.6
